Where a name gives a salt, the structure may show the parent alone.
How the values were obtained:
MOLM-14 cells = assay: Proliferation assay (spheroid), MOLM-14; format: cell-based; details: Homo sapiens, 8 days, read-out: spheroid assay_OneTime MOLM-14 IC50
OCI-AML3 tumors = assay: Efficacy study in disseminated OCI-AML3 model; format: in vivo, SCID beige mice
Description: Day 0 is the day of tumor cell implantation and study initiation.
Median survival was determined utilizing Kaplan-Meier survival analysis.

Compound	IC50 (MOLM-14 cells)	median days of survival (OCI-AML3 tumors; 30 mg/kg PO daily for 28 days)	median days of survival (OCI-AML3 tumors; 50 mg/kg PO daily for 28 days)	median days of survival (OCI-AML3 tumors; 100 mg/kg PO daily for 28 days)
CCN(C(=O)c1cc(F)ccc1Oc1nncnc1N1CCC2(C1)CN([C@H](CCCNCCOC)C(C)C)C2)C(C)C [Compound 11, (R)-N-ethyl-5-fluoro-N-isopropyl-2-((5-(2-(6-((2-methoxyethyl)amino)-2-methylhexan-3-yl)-2,6-diazaspiro[3.4]octan-6-yl)-1,2,4-triazin-6-yl)oxy)benzamide]	21 nM			
CCN(C(=O)c1cc(F)ccc1Oc1nncnc1N1CCC2(C1)CN([C@H](CCCN(C)CCOC)C(C)C)C2)C(C)C [Compound A3, (R)-N-ethyl-5-fluoro-N-isopropyl-2-((5-(2-(6-((2-methoxyethyl) (methyl)amino)-2-methylhexan-3-yl)-2,6-diazaspiro[3.4]octan-6-yl)-1,2,4-triazin-6-yl)oxy) benzamide oxalate]		75.5 days	58.5 days	75 days
